Results from paper PMC12052742, “Engineering a newly identified alcohol dehydrogenase from Sphingobium Sp. for efficient utilization of nicotinamide cofactors biomimetics” (Bioresources and Bioprocessing, 2025).

Tests used:
Type in all cases: biochemical, Sphingobium sp. SYK-6
SpADH2 [1] = experiment: Cofactor spectrum of syringyl alcohol oxidation (HPLC specific activity), WT; conditions: 1a 5 mM, cofactor 7.5 mM, pH 7.5, 30℃, 5 µg SpADH2, 1 h
Experimental: Fig. 2 Cofactor spectrum of syringyl alcohol oxidation catalyzed by SpADH2. The darkness of the background color for each cofactor stands for the activity of SpADH2 utilizing various cofactors. (a) NAD(P) ^+ and NMN^+ are shown in purple background. (b) tsNCBs are shown in cyan background. The evaluation of cofactor spectrum of SpADH2 was carried out under following conditions: 50 mM PBS buffer (pH 7.5) and 30℃, with 1a (5 mM) as substrate and different cofactors (7.5 mM) as cofactor. For NAD(P)^+ and NMN^+, 0.05 µg SpADH2 was added, and for tsNCBs, 5 µg SpADH2 was added. The results were analyzed by HPLC after 1 h reaction
(§1) Specific activity of SpADH2 in cofactor spectrum study was determined by HPLC analysis. PBS (pH 7.5) buffer was pre-heated at 30°C for 15 min. For NAD(P)^+ and NMN^+, 0.05 µg SpADH2 was added to PBS buffer (100 µL). For tsNCBs, 5 µg SpADH2 was added. A final concentration of 7.5 mM cofactor was added to the reaction mixture. Finally, a final concentration of 5 mM substrate was added to start the reaction. The reactions were conducted at 30°C.
(§2) One unit of enzyme activity is defined as the amount of enzyme required to form 1 µmol 1b per minute at pH 7.5 and 30°C. Same reaction without cofactor was used as a blank control.

SpADH2 [2] = experiment: Preliminary evaluation of NCB usage in oxidation of syringyl alcohol (HPLC); conditions: preliminary assay: 1a 1 mM, NCB 10 mM, pH 7.0, 30℃, 1 h
Experimental: Sphingobium sp. SYK-6 belongs to genus Sphingomonas, and a search in UniProtKB identified 19 ADHs from this strain, including 5 PQQ-dependent and the remaining NAD^+/NADP^+-dependent enzymes. Two sequences annotated as aryl-alcohol dehydrogenases (SLG_34580 and SLG_24930) (Table. S1) were selected for heterologous expression (Fig. S1) and named SpADH1 and SpADH2, respectively. Their ability to utilize NCBs was assessed by oxidation of syringyl alcohol (1a) to produce syringaldehyde (1b) (Fig. 1a).
Fig. 1 (a) Reaction scheme of SpADH2-catalyzed oxidation of syringyl alcohol. (b) Specific activity of SpADH2 toward four NCBs. The evaluation of NCBs usage by SpADH2 was carried out under following conditions: 50 mM PBS buffer (pH 7.0) and 30℃, with 1a (1 mM) as substrate and 4 typical NCBs (10 mM) as cofactor. A total of 0.1 mg/mL enzyme was added to a 200 µL reaction mixture, and was analyzed by HPLC after 1 h reaction
Reaction samples were analyzed using Agilent 1260 Infinity II LC system under reversed phase condition. Column: Agilent C18 column. Analytical conditions for 1a and 1b: mobile phase: 50% water: 50% acetonitrile. The retention time for standard product 1b was 3.27 min, under flow rate of 1 mL·min^− 1and temperature of 30°C (Fig. S4).

[3] = test system: SpADH2 variant H43L/A290I; experiment: Cofactor spectrum (HPLC specific activity), variant H43L/A290I; conditions: 1a 5 mM, cofactor 7.5 mM, pH 7.5, 30℃, 5 µg enzyme
Experimental: (§3) Fig. 8 Cofactor spectrums of SpADH2 and its variants. The darkness of color for each cofactor stands for the activity. For each cofactor cube, top left: WT, top right: H43L, bottom left: A290I, bottom right: H43L/A290I. (a) Natural cofactors and NMN^+ are shown in purple. (b) tsNCBs are shown in cyan. The evaluation of cofactor spectrum was carried out under following conditions: 50 mM PBS buffer (pH 7.5) and 30℃, with 1a (5 mM) as substrate and different cofactors (7.5 mM) as cofactor. For NAD(P)^+ and NMN^+, 0.05 µg enzyme was added, and for tsNCBs, 5 µg enzyme was added. The results were analyzed by HPLC after 1 h reaction
as §1, §2

SpADH2 variant H43L = experiment: Cofactor spectrum (HPLC specific activity), variant H43L; conditions: 1a 5 mM, cofactor 7.5 mM, pH 7.5, 30℃, 5 µg enzyme
Experimental: as §3, §1, §2

In the case of `NC(=O)c1ccc[n+](CCCc2ccccc2)c1` [P3NA^+, 3-carbamoyl-1-(3-phenylpropyl)pyridin-1-ium], the “utilization of the tsNCB by SpADH2 (in words)” value (SpADH2 [1]) is reported as “No detectable activity”, the “utilization of the NCB by SpADH2 (in words)” value (SpADH2 [2]) is reported as “could not be utilized” and the “utilization of the tsNCB (in words)” value [3] is reported as “acquired capability of utilizing”.
In the case of `NC(=O)c1ccc[n+](CCc2ccccc2)c1` [P2NA^+, 3-carbamoyl-1-phenethylpyridin-1-ium], the “utilization of the tsNCB (in words)” value (SpADH2 variant H43L) is reported as “exhibited activity”, the “utilization of the tsNCB by SpADH2 (in words)” value (SpADH2 [1]) is reported as “No detectable activity” and the “utilization of the NCB by SpADH2 (in words)” value (SpADH2 [2]) is reported as “could not be utilized”.
